In one experiment the target is T1, human GLP-1 receptor (Homo sapiens, UniProt P43220).
T1 construct: host or cells: CHO cells
Nature of the experiment: DiscoveRx LeadHunter cellular assay, cAMP stimulation, GLP-1 receptor in CHO cells. Particulars: human GLP-1 receptor in CHO cells (DiscoveRx); read-out: EC50 cAMP GLP-1 R. Format: cell-based.

Another experiment addresses T2, human glucagon receptor (Homo sapiens, UniProt P47871).
T2 construct: host or cells: CHO cells
Briefly: DiscoveRx LeadHunter cellular assay, cAMP stimulation, glucagon receptor in CHO cells. In kind it is cell-based.

T2 sequence (P47871 26-477): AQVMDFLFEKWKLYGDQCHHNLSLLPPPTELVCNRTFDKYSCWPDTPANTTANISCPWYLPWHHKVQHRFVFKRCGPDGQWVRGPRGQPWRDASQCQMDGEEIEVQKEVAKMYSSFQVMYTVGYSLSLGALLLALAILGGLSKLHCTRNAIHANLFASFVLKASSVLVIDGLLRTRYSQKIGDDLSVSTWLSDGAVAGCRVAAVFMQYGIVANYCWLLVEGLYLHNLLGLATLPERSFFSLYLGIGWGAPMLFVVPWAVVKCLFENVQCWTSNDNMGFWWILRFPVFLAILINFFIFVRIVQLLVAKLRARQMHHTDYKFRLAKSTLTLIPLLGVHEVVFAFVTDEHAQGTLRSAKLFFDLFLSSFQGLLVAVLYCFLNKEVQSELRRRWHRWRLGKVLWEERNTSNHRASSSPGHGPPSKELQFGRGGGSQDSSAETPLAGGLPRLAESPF
T1 sequence (P43220 24-463): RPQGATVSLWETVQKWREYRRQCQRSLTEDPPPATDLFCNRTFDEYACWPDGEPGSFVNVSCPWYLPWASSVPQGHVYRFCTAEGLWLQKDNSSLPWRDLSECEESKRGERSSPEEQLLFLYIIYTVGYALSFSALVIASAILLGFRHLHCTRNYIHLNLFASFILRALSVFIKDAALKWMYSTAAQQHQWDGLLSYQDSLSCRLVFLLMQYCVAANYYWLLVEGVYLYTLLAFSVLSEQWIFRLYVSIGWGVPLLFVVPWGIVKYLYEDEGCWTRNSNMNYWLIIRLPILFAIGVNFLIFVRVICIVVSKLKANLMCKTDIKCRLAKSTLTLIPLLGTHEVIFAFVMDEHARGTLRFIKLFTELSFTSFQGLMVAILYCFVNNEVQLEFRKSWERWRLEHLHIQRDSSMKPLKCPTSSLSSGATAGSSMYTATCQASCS
Description for human GLP-1 receptor: (§1) A further series of cellular assays was carried out with standard cellular assays (DiscoveRx, LeadHunter assays) using readout of cAMP stimulation or arrestin activation. Compounds were weighed precisely in an amount of about 1 mg and shipped to DiscoveRx for dilution and assay.
Description for human glucagon receptor: as §1

Take `CCCCCCCCCCCCCCCCO[C@@H]1O[C@H](C(=O)NCCCC[C@H](NC(=O)[C@@H](NC(=O)[C@H](Cc2ccccc2)NC(=O)[C@H](CCC(=O)O)NC(=O)[C@@H]2CCCCNC(=O)CC[C@H](NC(=O)[C@H](CC(=O)O)NC(=O)[C@H](CC(C)C)NC(=O)[C@H](Cc3ccc(O)cc3)NC(=O)[C@H](CCCCN)NC(=O)[C@H](CO)NC(=O)[C@H](Cc3ccc(O)cc3)NC(=O)[C@H](CC(=O)O)NC(=O)[C@H](CO)NC(=O)[C@@H](NC(=O)[C@H](Cc3ccccc3)NC(=O)[C@@H](NC(=O)CNC(=O)[C@H](CCC(N)=O)NC(=O)C(C)(C)NC(=O)[C@@H](N)Cc3c[nH]cn3)[C@@H](C)O)[C@@H](C)O)C(=O)N[C@@H](CCC(N)=O)C(=O)N[C@@H](C)C(=O)N[C@@H](C)C(=O)N2)[C@@H](C)CC)C(=O)N[C@@H](Cc2c[nH]c3ccccc23)C(=O)N[C@@H](CC(C)C)C(=O)N[C@@H](CC(C)C)C(=O)N[C@@H](CCC(N)=O)C(=O)N[C@H](C(=O)NCCOCCOCCOCCOCCC(=O)O)[C@@H](C)O)[C@@H](O)[C@H](O)[C@H]1O` [EU-A1635]: the concentration giving a half-maximal response (EC50) – broadly, the concentration giving half of the maximal effect – on human GLP-1 receptor was 0.071 nM; at human glucagon receptor it was 1.98 nM.
For `CCCCCCCCCCCCO[C@@H]1O[C@H](C(=O)NCCCC[C@H](NC(=O)[C@@H](NC(=O)[C@H](Cc2ccccc2)NC(=O)[C@H](CCC(=O)O)NC(=O)[C@@H]2CCCCNC(=O)CC[C@H](NC(=O)[C@H](CC(=O)O)NC(=O)[C@H](CC(C)C)NC(=O)[C@H](Cc3ccc(O)cc3)NC(=O)[C@H](CCCCN)NC(=O)[C@H](CO)NC(=O)[C@H](Cc3ccc(O)cc3)NC(=O)[C@H](CC(=O)O)NC(=O)[C@H](CO)NC(=O)[C@@H](NC(=O)[C@H](Cc3ccccc3)NC(=O)[C@@H](NC(=O)CNC(=O)[C@H](CCC(N)=O)NC(=O)C(C)(C)NC(=O)[C@@H](N)Cc3c[nH]cn3)[C@@H](C)O)[C@@H](C)O)C(=O)N[C@@H](CCC(N)=O)C(=O)N[C@@H](C)C(=O)N[C@@H](C)C(=O)N2)[C@@H](C)CC)C(=O)N[C@@H](Cc2c[nH]c3ccccc23)C(=O)N[C@@H](CC(C)C)C(=O)N[C@@H](CC(C)C)C(=O)N[C@@H](CCC(N)=O)C(=O)N[C@H](C(=O)NCCOCCOCCOCCOCCOCCOCCOCCOCCC(=O)O)[C@@H](C)O)[C@@H](O)[C@H](O)[C@H]1O` [EU-A1645], the EC50 at human GLP-1 receptor was 0.029 nM; at human glucagon receptor, 0.091 nM.
For `CCCCCCCCCCCCCCO[C@@H]1O[C@H](C(=O)NCCCC[C@H](NC(=O)[C@@H](NC(=O)[C@H](Cc2ccccc2)NC(=O)[C@H](CCC(=O)O)NC(=O)[C@@H]2CCCCNC(=O)CC[C@H](NC(=O)[C@H](CC(=O)O)NC(=O)[C@H](CC(C)C)NC(=O)[C@H](Cc3ccc(O)cc3)NC(=O)[C@H](CCCCN)NC(=O)[C@H](CO)NC(=O)[C@H](Cc3ccc(O)cc3)NC(=O)[C@H](CC(=O)O)NC(=O)[C@H](CO)NC(=O)[C@@H](NC(=O)[C@H](Cc3ccccc3)NC(=O)[C@@H](NC(=O)CNC(=O)[C@H](CCC(N)=O)NC(=O)C(C)(C)NC(=O)[C@@H](N)Cc3c[nH]cn3)[C@@H](C)O)[C@@H](C)O)C(=O)N[C@@H](CCC(N)=O)C(=O)N[C@@H](C)C(=O)N[C@@H](C)C(=O)N2)[C@@H](C)CC)C(=O)N[C@@H](Cc2c[nH]c3ccccc23)C(=O)N[C@@H](CC(C)C)C(=O)N[C@@H](CC(C)C)C(=O)N[C@@H](CCC(N)=O)C(=O)N[C@H](C(=O)NCCOCCOCCOCCOCCOCCOCCOCCOCCC(=O)O)[C@@H](C)O)[C@@H](O)[C@H](O)[C@H]1O` [EU-A1646], the concentration for a half-maximal effect (EC50) came to 0.029 nM on human GLP-1 receptor and 0.332 nM on human glucagon receptor.
With `CCCCCCCCCCCCCCCCO[C@@H]1O[C@H](C(=O)NCCCC[C@H](NC(=O)[C@@H](NC(=O)[C@H](Cc2ccccc2)NC(=O)[C@H](CCC(=O)O)NC(=O)[C@@H]2CCCCNC(=O)CC[C@H](NC(=O)[C@H](CC(=O)O)NC(=O)[C@H](CC(C)C)NC(=O)[C@H](Cc3ccc(O)cc3)NC(=O)[C@H](CCCCN)NC(=O)[C@H](CO)NC(=O)[C@H](Cc3ccc(O)cc3)NC(=O)[C@H](CC(=O)O)NC(=O)[C@H](CO)NC(=O)[C@@H](NC(=O)[C@H](Cc3ccccc3)NC(=O)[C@@H](NC(=O)CNC(=O)[C@H](CCC(N)=O)NC(=O)C(C)(C)NC(=O)[C@@H](N)Cc3c[nH]cn3)[C@@H](C)O)[C@@H](C)O)C(=O)N[C@@H](CCC(N)=O)C(=O)N[C@@H](C)C(=O)N[C@@H](C)C(=O)N2)[C@@H](C)CC)C(=O)N[C@@H](Cc2c[nH]c3ccccc23)C(=O)N[C@@H](CC(C)C)C(=O)N[C@@H](CC(C)C)C(=O)N[C@@H](CCC(N)=O)C(=O)N[C@H](C(=O)NCCOCCOCCOCCOCCOCCOCCOCCOCCC(=O)O)[C@@H](C)O)[C@@H](O)[C@H](O)[C@H]1O` [EU-A1647], the values for the EC50 at human GLP-1 receptor and on human glucagon receptor were 0.113 nM and 1.9 nM, respectively.
In the case of `CCCCCCCCO[C@@H]1O[C@H](C(=O)NCCCC[C@H](NC(=O)[C@@H](NC(=O)[C@H](Cc2ccccc2)NC(=O)[C@H](CCC(=O)O)NC(=O)[C@@H]2CCCCNC(=O)CC[C@H](NC(=O)[C@H](CC(=O)O)NC(=O)[C@H](CC(C)C)NC(=O)[C@H](Cc3ccc(O)cc3)NC(=O)[C@H](CCCCN)NC(=O)[C@H](CO)NC(=O)[C@H](Cc3ccc(O)cc3)NC(=O)[C@H](CC(=O)O)NC(=O)[C@H](CO)NC(=O)[C@@H](NC(=O)[C@H](Cc3ccccc3)NC(=O)[C@@H](NC(=O)CNC(=O)[C@H](CCC(N)=O)NC(=O)C(C)(C)NC(=O)[C@@H](N)Cc3c[nH]cn3)[C@@H](C)O)[C@@H](C)O)C(=O)N[C@@H](CCC(N)=O)C(=O)N[C@@H](C)C(=O)N[C@@H](C)C(=O)N2)[C@@H](C)CC)C(=O)N[C@@H](Cc2c[nH]c3ccccc23)C(=O)N[C@@H](CC(C)C)C(=O)N[C@@H](CC(C)C)C(=O)N[C@@H](CCC(N)=O)C(=O)N[C@H](C(=O)O)[C@@H](C)O)[C@@H](O)[C@H](O)[C@H]1O` [EU-A1679], the EC50 on human GLP-1 receptor is 0.009 nM; at human glucagon receptor, 0.14 nM.
Consider `CCCCCCCCCCO[C@@H]1O[C@H](C(=O)NCCCC[C@H](NC(=O)[C@@H](NC(=O)[C@H](Cc2ccccc2)NC(=O)[C@H](CCC(=O)O)NC(=O)[C@@H]2CCCCNC(=O)CC[C@H](NC(=O)[C@H](CC(=O)O)NC(=O)[C@H](CC(C)C)NC(=O)[C@H](Cc3ccc(O)cc3)NC(=O)[C@H](CCCCN)NC(=O)[C@H](CO)NC(=O)[C@H](Cc3ccc(O)cc3)NC(=O)[C@H](CC(=O)O)NC(=O)[C@H](CO)NC(=O)[C@@H](NC(=O)[C@H](Cc3ccccc3)NC(=O)[C@@H](NC(=O)CNC(=O)[C@H](CCC(N)=O)NC(=O)C(C)(C)NC(=O)[C@@H](N)Cc3c[nH]cn3)[C@@H](C)O)[C@@H](C)O)C(=O)N[C@@H](CCC(N)=O)C(=O)N[C@@H](C)C(=O)N[C@@H](C)C(=O)N2)[C@@H](C)CC)C(=O)N[C@@H](Cc2c[nH]c3ccccc23)C(=O)N[C@@H](CC(C)C)C(=O)N[C@@H](CC(C)C)C(=O)N[C@@H](CCC(N)=O)C(=O)N[C@H](C(=O)O)[C@@H](C)O)[C@@H](O)[C@H](O)[C@H]1O` [EU-A1680], for which the EC50 on human GLP-1 receptor is 0.026 nM; on human glucagon receptor, 0.114 nM.
Regarding `CCCCCCCCCCCCO[C@@H]1O[C@H](C(=O)NCCCC[C@H](NC(=O)[C@@H](NC(=O)[C@H](Cc2ccccc2)NC(=O)[C@H](CCC(=O)O)NC(=O)[C@@H]2CCCCNC(=O)CC[C@H](NC(=O)[C@H](CC(=O)O)NC(=O)[C@H](CC(C)C)NC(=O)[C@H](Cc3ccc(O)cc3)NC(=O)[C@H](CCCCN)NC(=O)[C@H](CO)NC(=O)[C@H](Cc3ccc(O)cc3)NC(=O)[C@H](CC(=O)O)NC(=O)[C@H](CO)NC(=O)[C@@H](NC(=O)[C@H](Cc3ccccc3)NC(=O)[C@@H](NC(=O)CNC(=O)[C@H](CCC(N)=O)NC(=O)C(C)(C)NC(=O)[C@@H](N)Cc3c[nH]cn3)[C@@H](C)O)[C@@H](C)O)C(=O)N[C@@H](CCC(N)=O)C(=O)N[C@@H](C)C(=O)N[C@@H](C)C(=O)N2)[C@@H](C)CC)C(=O)N[C@@H](Cc2c[nH]c3ccccc23)C(=O)N[C@@H](CC(C)C)C(=O)N[C@@H](CC(C)C)C(=O)N[C@@H](CCC(N)=O)C(=O)N[C@H](C(=O)O)[C@@H](C)O)[C@@H](O)[C@H](O)[C@H]1O` [EU-A1681], the values for the EC50 at human GLP-1 receptor and on human glucagon receptor were 0.009 nM and 0.132 nM, respectively.
The corresponding values for `CCCCCCCCCCCCCCO[C@@H]1O[C@H](C(=O)NCCCC[C@H](NC(=O)[C@@H](NC(=O)[C@H](Cc2ccccc2)NC(=O)[C@H](CCC(=O)O)NC(=O)[C@@H]2CCCCNC(=O)CC[C@H](NC(=O)[C@H](CC(=O)O)NC(=O)[C@H](CC(C)C)NC(=O)[C@H](Cc3ccc(O)cc3)NC(=O)[C@H](CCCCN)NC(=O)[C@H](CO)NC(=O)[C@H](Cc3ccc(O)cc3)NC(=O)[C@H](CC(=O)O)NC(=O)[C@H](CO)NC(=O)[C@@H](NC(=O)[C@H](Cc3ccccc3)NC(=O)[C@@H](NC(=O)CNC(=O)[C@H](CCC(N)=O)NC(=O)C(C)(C)NC(=O)[C@@H](N)Cc3c[nH]cn3)[C@@H](C)O)[C@@H](C)O)C(=O)N[C@@H](CCC(N)=O)C(=O)N[C@@H](C)C(=O)N[C@@H](C)C(=O)N2)[C@@H](C)CC)C(=O)N[C@@H](Cc2c[nH]c3ccccc23)C(=O)N[C@@H](CC(C)C)C(=O)N[C@@H](CC(C)C)C(=O)N[C@@H](CCC(N)=O)C(=O)N[C@H](C(=O)O)[C@@H](C)O)[C@@H](O)[C@H](O)[C@H]1O` [EU-A1682] are 0.21 nM and 1.26 nM.
For `CCCCCCCCCCO[C@@H]1O[C@H](C(=O)NCCCC[C@H](N)C(=O)NCCCC[C@H](NC(=O)[C@@H](NC(=O)[C@H](Cc2ccccc2)NC(=O)[C@H](CCC(=O)O)NC(=O)[C@@H]2CCCCNC(=O)CC[C@H](NC(=O)[C@H](CC(=O)O)NC(=O)[C@H](CC(C)C)NC(=O)[C@H](Cc3ccc(O)cc3)NC(=O)[C@H](CCCCN)NC(=O)[C@H](CO)NC(=O)[C@H](Cc3ccc(O)cc3)NC(=O)[C@H](CC(=O)O)NC(=O)[C@H](CO)NC(=O)[C@@H](NC(=O)[C@H](Cc3ccccc3)NC(=O)[C@@H](NC(=O)CNC(=O)[C@H](CCC(N)=O)NC(=O)C(C)(C)NC(=O)[C@@H](N)Cc3c[nH]cn3)[C@@H](C)O)[C@@H](C)O)C(=O)N[C@@H](CCC(N)=O)C(=O)N[C@@H](C)C(=O)N[C@@H](C)C(=O)N2)[C@@H](C)CC)C(=O)N[C@@H](Cc2c[nH]c3ccccc23)C(=O)N[C@@H](CC(C)C)C(=O)N[C@@H](CC(C)C)C(=O)N[C@@H](CCC(N)=O)C(=O)N[C@H](C(N)=O)[C@@H](C)O)[C@@H](O)[C@H](O)[C@H]1O` [EU-A1710], the EC50 on human GLP-1 receptor was 0.026 nM; at human glucagon receptor, 0.065 nM.

Source of the values: patent publication US11541028B2, “Peptide pharmaceuticals for treatment of NASH and other disorders” (Mederis Diabetes LLC, priority 2018, dated 2023).
